Assay results published in article PMC5722316, “Synthesis of novel purpurealidin analogs and evaluation of their effect on the cancer-relevant potassium channel KV10.1” (PLoS ONE, 2017).

Assays:
Type in all cases: cell-based
LNCAP = assay: Proliferation assay (IncuCyte live-cell imaging, cell confluency); settings: Homo sapiens, indicative, from AUC vs concentration (2-100 μM), read-out: Antiproliferative effect (IC50)
Experimental: (§1) Cell lines SH-SY5Y (ACC 209), DU145 (ACC 261), LNCaP (ACC 256) and NIH-3T3 (ACC 59) were purchased from DSMZ (Germany). MDA-MB-435S (HTB 129) and hTERT RPE-1 (CRL 4000) were obtained from ATCC (USA). Cell lines were cultured in their recommended media Supplemented with 10% or 15% FCS (PAA laboratories, Germany) at 37°C in humidified 5% CO2 atmosphere. All media were purchased from ThermoFisher Scientific (Waltham, Massachusetts, United States).
(§2) Cell proliferation, cytotoxicity and apoptosis were assessed in a 96-well microtiter plate by live-cell imaging using an IncuCyte Zoom System (Essen BioScience, UK). Cell proliferation was monitored in terms of cell confluency (%). Cell cytotoxicity was assessed by the CellTox Green Dye assay (Promega, Madison, Wisconsin, USA). The Incucyte Caspase-3/7 apoptosis assay (Essen BioScience, UK) was used to evaluate the effect of compound 5 on the apoptotic pathway. As negative controls media supplemented with 0.05% of DMSO were used.
(§3) Live-cell imaging data were collected from the IncuCyte Zoom software and analyzed using GraphPad Prism 5 software. Proliferation was measured as Phase Object Confluence (%), cytotoxicity and apoptosis were measured as Green Object Count (1/mm^2). All data are represented as mean S.E.M of n = 6 different wells.
(§4) The following concentrations of compound 5 were added to the different cell lines, 100 μM, 50 μM, 20 μM, 10 μM, 5 μM and 2 μM to assess its effect on cell proliferation (S1 Fig) and cytotoxicity (S2 Fig). Indicative IC50-values for the proliferation assays were obtained by plotting the areas under the curve (AUC × 10^3) against the tested compound 5 concentrations and by fitting the curve with a logistic dose-response equation. The EC50-values for the cytotoxicity assays were calculated correspondingly (S3 Fig). Although more data points would be necessary to calculate precise IC50 and EC50-values, it is clear that compound 5 inhibits the proliferation and induces cytotoxicity in all the tested cell lines in the low to middle micromolar range.

MDA-MB-435S = assay: as above; settings: Homo sapiens, indicative, from AUC vs concentration (2-100 μM), read-out: Antiproliferative effect (IC50)
Experimental: as §1, §2, §3, §4

DU145 = assay: as above; settings: Homo sapiens, DU-145, indicative, from AUC vs concentration (2-100 μM), read-out: Antiproliferative effect (IC50)
Experimental: as §1, §2, §3, §4

hTERT RPE-1 = assay: as above; settings: Homo sapiens, hTERT-RPE1, indicative, from AUC vs concentration (2-100 μM), read-out: Antiproliferative effect (IC50)
Experimental: as §1, §2, §3, §4

NIH-3T3 = assay: as above; settings: Mus musculus, NIH3T3, indicative, from AUC vs concentration (2-100 μM), read-out: Antiproliferative effect (IC50)
Experimental: as §1, §2, §3, §4

SH-SY5Y = assay: as above; settings: Homo sapiens, indicative, from AUC vs concentration (2-100 μM), read-out: Antiproliferative effect (IC50)
Experimental: as §1, §2, §3, §4

hKV10.1a = molecular target: T1, hKV10.1a (Homo sapiens, UniProt O95259); assay: Two-electrode voltage-clamp recordings of KV10.1 currents in Xenopus laevis oocytes
T1 construct: expressed in transfected cells; host or cells: Xenopus laevis oocytes injected with cRNA transcribed from the hKV10.1a-pSGEM plasmid
T1 sequence (O95259 1-962 isoform O95259-2): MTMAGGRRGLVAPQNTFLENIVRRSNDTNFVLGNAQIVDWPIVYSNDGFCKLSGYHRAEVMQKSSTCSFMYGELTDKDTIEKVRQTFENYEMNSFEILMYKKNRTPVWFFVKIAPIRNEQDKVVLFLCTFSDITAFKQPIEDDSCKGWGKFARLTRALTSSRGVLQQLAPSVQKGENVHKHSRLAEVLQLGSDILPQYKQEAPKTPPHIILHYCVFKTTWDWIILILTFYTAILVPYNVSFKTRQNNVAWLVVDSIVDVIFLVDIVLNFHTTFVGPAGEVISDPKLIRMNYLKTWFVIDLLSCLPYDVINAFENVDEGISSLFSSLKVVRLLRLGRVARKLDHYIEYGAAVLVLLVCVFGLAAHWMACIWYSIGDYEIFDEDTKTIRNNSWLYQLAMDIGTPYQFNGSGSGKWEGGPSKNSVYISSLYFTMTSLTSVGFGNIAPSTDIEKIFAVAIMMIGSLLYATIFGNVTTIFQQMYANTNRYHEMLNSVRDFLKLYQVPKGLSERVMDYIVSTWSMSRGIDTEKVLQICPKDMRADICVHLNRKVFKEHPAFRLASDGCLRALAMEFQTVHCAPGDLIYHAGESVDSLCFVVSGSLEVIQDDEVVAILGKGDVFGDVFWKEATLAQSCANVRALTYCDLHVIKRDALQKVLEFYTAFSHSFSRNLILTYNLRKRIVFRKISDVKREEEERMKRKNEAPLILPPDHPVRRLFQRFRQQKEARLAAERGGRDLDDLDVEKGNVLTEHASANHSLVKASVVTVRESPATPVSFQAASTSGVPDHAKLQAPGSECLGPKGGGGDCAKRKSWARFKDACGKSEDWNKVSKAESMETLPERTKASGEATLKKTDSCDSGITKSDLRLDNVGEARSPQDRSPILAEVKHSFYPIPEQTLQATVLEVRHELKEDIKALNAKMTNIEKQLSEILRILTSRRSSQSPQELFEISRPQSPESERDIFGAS

[1] = system: SH-SY5Y, DU145, LNCaP, NIH-3T3, MDA-MB-435S and hTERT RPE-1 cell lines; assay: Incucyte Caspase-3/7 apoptosis assay; settings: 100 μM, 50 μM and 20 μM; all the cell lines
Experimental: as §1, §2
as §3, with “wells. […]” for “wells.”

- IC50 (LNCAP): 26.4 µM
- IC50 (MDA-MB-435S): 28.1 µM
- IC50 (DU145): 28.9 µM
- IC50 (SH-SY5Y): 12.2 µM
- time constant (τ) of current decrease on open channels (hKV10.1a; 10 μM added during 20-s continuous step to 30 mV, no P/4 leak subtraction): ~ 1.4 s
- shift of activation curve (ΔV1/2) to more negative potentials (hKV10.1a; 10 μM, HK solution ([K+]e = 96 mM), Boltzmann fit): 14.8 ± 2.1 mV
- half-maximal voltage of activation (V1/2) in presence of compound (hKV10.1a; 10 μM, HK solution ([K+]e = 96 mM), control V1/2 = 39.3 ± 1.7 mV): 24.5 ± 1.3 mV
- slope factor k of activation curve in presence of compound (hKV10.1a; 10 μM, HK solution, control k = 15.7 ± 0.9): 14.5± 1.0
SMILES: COc1ccc(C(=O)NCCc2cc(Br)c(OCCCN(C)C)c(Br)c2)cc1Cl [Compound 5, 3-Chloro-N-[3,5-dibromo-4-[3-(dimethylamino)propoxy]phenethyl]-4-methoxybenzamide]
- IC50 (hTERT RPE-1): 12.5 µM
- IC50 (NIH-3T3): 7.13 µM
- caspase-3/7 activity (induction of the apoptotic pathway) [1]: caspase-3/7 activity was detected
